This test concerns c-Myc. The test can be described thus: c-Myc immunofluorescence assay. The following applies: A549 cells, 24 hours treatment, anti-c-Myc immunofluorescence. In kind it is cell-based, human. On the procedure: A549 human non-small cell lung carcinoma cells were treated for 24 hours with increasing compound concentration, cells were fixed and stained with a nuclei stain (DAPI) and anti-c-Myc fluorescent antibody. The c-Myc signal was quantified by image analysis, and data was exported and analyzed using TIBCO Spotfire® (TIBCO Corporation). Dose response curves were generated and fitted with logaristic regression to calculate potency (EC50 values). Potency values are presented in Table 2 for all compounds and are shown for selected compounds (FIG. 4).
A549 cells were grown in 384-wells plates (Perkin Elmer, Cat. 6057300) for 48 hours, treated with compounds and then fixed for 20 min in 4% paraformaldehyde. After that permeabilization was done using 0.1% Triton X-100 in PBS for 20 min. Primary anti-c-Myc antibody (Abcam, ab32072) staining was performed for 90 min at room temperature. Cells then were washed twice with PBS and incubated with secondary antibody (Abcam, ab150075) for 90 min at room temperature. Nuclei were stained with DAPI for 10 min and washed twice with PBS.
Cell images were taken with Operetta (Perkin Elmer, USA), a wide-field fluorescence microscope at 20× magnification. After acquisition, the images were transferred to Columbus software (Perkin-Elmer) for image analysis. In Columbus, cells were identified by their nucleus, using the “Find Nuceli” module and cytoplasm was detected based on the secondary antibody channel. Subsequently, the fluorescent signal was enumerated in the identified cell region. Then data was exported to a data analysis and visualization software, Tibco Spotfire, USA.

Molecules are shown by their SMILES.

Regarding `O=C(NCCCN1CCC(F)CC1)c1cc2sc3nc(-c4ccc([C@H]5CCCN5)cc4F)cn3c2cn1` [Compound 509R, (R)-2-(2-fluoro-4-(pyrrolidin-2-yl)phenyl)-N-(3-(4-fluoropiperidin-1-yl)propyl)imidazo[2′,1′:2,3]thiazolo[4,5-c]pyridine-7-carboxamide], the “Myc Efficacy (−LogEC50)” value is reported as “+++ (+++ ≥6)”. With `O=C(NCCCN1CCC(F)CC1)c1cc2sc3nc(-c4ccc([C@@H]5CCCN5)cc4F)cn3c2cn1` [Compound 509S, (S)-2-(2-fluoro-4-(pyrrolidin-2-yl)phenyl)-N-(3-(4-fluoropiperidin-1-yl)propyl)imidazo[2′,1′:2,3]thiazolo[4,5-c]pyridine-7-carboxamide] the entry was “+++ (+++ ≥6)”; with `O=C(NC1CCOCC1)c1ccc2c(c1)sc1nc(-c3ccc(C4CCCN4)cc3F)cn12` (stereo not drawn) [Compound 510, 2-(2-fluoro-4-(pyrrolidin-2-yl)phenyl)-N-(tetrahydro-2H-pyran-4-yl)benzo[d]imidazo[2,1-b]thiazole-7-carboxamide], “+++ (+++ ≥6)”.

`NC(=O)c1ccc2c(c1)sc1nc(-c3ccc(C4CCNC4)cc3F)cn12` (stereo not drawn) [Compound 511, 2-(2-fluoro-4-(pyrrolidin-3-yl)phenyl)benzo[d]imidazo[2,1-b]thiazole-7-carboxamide]: the “Myc Efficacy (−LogEC50)” value is “+++ (+++ ≥6)”. For the compound `O=C(NCCCN1CCC(F)CC1)c1ccc2c(c1)sc1nc(-c3ccc(C4(O)CCNCC4)cc3F)cn12` [Compound 512, 2-(2-fluoro-4-(4-hydroxypiperidin-4-yl)phenyl)-N-(3-(4-fluoropiperidin-1-yl)propyl)benzo[d]imidazo[2,1-b]thiazole-7-carboxamide], the “Myc Efficacy (−LogEC50)” value is “+++ (+++ ≥6)”. With `O=C(NCCCN1CCC(F)CC1)c1ccc2c(c1)sc1nc(-c3ccc(C4CCCNC4)cc3F)cn12` (stereo not drawn) [Compound 513, 2-(2-fluoro-4-(piperidin-3-yl)phenyl)-N-(3-(4-fluoropiperidin-1-yl)propyl)benzo[d]imidazo[2,1-b]thiazole-7-carboxamide] the entry was “+++ (+++ ≥6)”; with `NC(=O)c1cc2sc3nc(-c4ccc(C5CCCN5)cc4F)cn3c2cn1` (stereo not drawn) [Compound 514, 2-(2-fluoro-4-(pyrrolidin-2-yl)phenyl)imidazo[2′,1′:2,3]thiazolo[4,5-c]pyridine-7-carboxamide], “+++ (+++ ≥6)”. For the compound `CNC(=O)c1cc2sc3nc(-c4ccc(C5CCCN5)cc4F)cn3c2cn1` (stereo not drawn) [Compound 515, 2-(2-fluoro-4-(pyrrolidin-2-yl)phenyl)-N-methylimidazo[2′,1′:2,3]thiazolo[4,5-c]pyridine-7-carboxamide], the “Myc Efficacy (−LogEC50)” value was “+++ (+++ ≥6)”. With `O=C(NCCCN1CCC(F)CC1)c1ccc2c(c1)sc1nc(-c3ccc(C4(O)CCNC4)cc3F)cn12` (stereo not drawn) [Compound 516, 2-(2-fluoro-4-(3-hydroxypyrrolidin-3-yl)phenyl)-N-(3-(4-fluoropiperidin-1-yl)propyl)benzo[d]imidazo[2,1-b]thiazole-7-carboxamide] the entry was “+++ (+++ ≥6)”; with `CN1CCC(NC(=O)c2ccc3c(c2)sc2nc(-c4ccc(C5COCCN5)cc4F)cn23)CC1` (stereo not drawn) [Compound 517, 2-(2-fluoro-4-(morpholin-3-yl)phenyl)-N-(1-methylpiperidin-4-yl)benzo[d]imidazo[2,1-b]thiazole-7-carboxamide], “+++ (+++ ≥6)”; with `CN1CCC(NC(=O)c2ccc3c(c2)sc2nc(-c4ccc(C5CNCCO5)cc4F)cn23)CC1` (stereo not drawn) [Compound 519, 2-(2-fluoro-4-(morpholin-2-yl)phenyl)-N-(1-methylpiperidin-4-yl)benzo[d]imidazo[2,1-b]thiazole-7-carboxamide], “+++ (+++ ≥6)”. The entry for `CN1CCC(NC(=O)c2ccc3c(c2)sc2nc(-c4ccc([C@@H]5C[C@@H](O)CN5)cc4F)cn23)CC1` [Compound 522R, 2-(2-fluoro-4-((2S,4R)-4-hydroxypyrrolidin-2-yl)phenyl)-N-(1-methylpiperidin-4-yl)benzo[d]imidazo[2,1-b]thiazole-7-carboxamide] is “+++ (+++ ≥6)”; for `CN1CCC(NC(=O)c2ccc3c(c2)sc2nc(-c4ccc([C@@H]5C[C@H](O)CN5)cc4F)cn23)CC1` [Compound 522S, 2-(2-fluoro-4-((2S,4S)-4-hydroxypyrrolidin-2-yl)phenyl)-N-(1-methylpiperidin-4-yl)benzo[d]imidazo[2,1-b]thiazole-7-carboxamide] it is “+++ (+++ ≥6)”. With `O=C(NC1CCCOC1)c1ccc2c(c1)sc1nc(-c3ccc(C4CCCN4)cc3F)cn12` (stereo not drawn) [Compound 525, 2-(2-fluoro-4-(pyrrolidin-2-yl)phenyl)-N-(tetrahydro-2H-pyran-3-yl)benzo[d]imidazo[2,1-b]thiazole-7-carboxamide] the entry was “+++ (+++ ≥6)”; with `O=C(NC1CCOCC1)c1ccc2c(c1)sc1nc(-c3ccc(C4CCNCC4)cc3F)cn12` [Compound 529, 2-(2-fluoro-4-(piperidin-4-yl)phenyl)-N-(tetrahydro-2H-pyran-4-yl)benzo[d]imidazo[2,1-b]thiazole-7-carboxamide], “+++ (+++ ≥6)”; with `O=C(NC1CCOCC1)c1ccc2c(c1)sc1nc(-c3ccc(C4COCCN4)cc3F)cn12` (stereo not drawn) [Compound 534, 2-(2-fluoro-4-(morpholin-3-yl)phenyl)-N-(tetrahydro-2H-pyran-4-yl)benzo[d]imidazo[2,1-b]thiazole-7-carboxamide], “+++ (+++ ≥6)”.

Consider `O=C(NC1CCOCC1)c1ccc2c(c1)sc1nc(-c3ccc(C4CNCCO4)cc3F)cn12` (stereo not drawn) [Compound 535, 2-(2-fluoro-4-(morpholin-2-yl)phenyl)-N-(tetrahydro-2H-pyran-4-yl)benzo[d]imidazo[2,1-b]thiazole-7-carboxamide], for which the “Myc Efficacy (−LogEC50)” value is listed as “+++ (+++ ≥6)”. The entry for `CN1CCC(NC(=O)c2ccc3c(c2)sc2nc(-c4ccc(C5(F)CCNCC5)cc4F)cn23)CC1` [Compound 536, 2-(2-fluoro-4-(4-fluoropiperidin-4-yl)phenyl)-N-(1-methylpiperidin-4-yl)benzo[d]imidazo[2,1-b]thiazole-7-carboxamide] is “+++ (+++ ≥6)”; for `O=C1CNC(c2ccc(-c3cn4c(n3)sc3cc(C(=O)NC5CCOCC5)ccc34)c(F)c2)C1` (stereo not drawn) [Compound 537, 2-(2-fluoro-4-(4-oxopyrrolidin-2-yl)phenyl)-N-(tetrahydro-2H-pyran-4-yl)benzo[d]imidazo[2,1-b]thiazole-7-carboxamide] it is “+++ (+++ ≥6)”; for `NC(CO)c1ccc(-c2cn3c(n2)sc2cc(C(=O)NCCCN4CCC(F)CC4)ccc23)c(F)c1` (stereo not drawn) [Compound 539, 2-(4-(1-amino-2-hydroxyethyl)-2-fluorophenyl)-N-(3-(4-fluoropiperidin-1-yl)propyl)benzo[d]imidazo[2,1-b]thiazole-7-carboxamide] it is “+++ (+++ ≥6)”. The entry for `O=C(NCCCN1CCC(F)CC1)c1ccc2c(c1)sc1nc(-c3ccc(C4CC(C(F)F)CN4)cc3F)cn12` (stereo not drawn) [Compound 542, 2-(4-(4-(difluoromethyl)pyrrolidin-2-yl)-2-fluorophenyl)-N-(3-(4-fluoropiperidin-1-yl)propyl)benzo[d]imidazo[2,1-b]thiazole-7-carboxamide] is “+++ (+++ ≥6)”.

Values taken from US12404283B2, “c-MYC mRNA translation modulators and uses thereof in the treatment of cancer” (Anima Biotech Inc., priority 2022, dated 2025).
